Where “and” joins values, the source holds several entries; their conditions need not be identical. Equal values may be shown once. Where no end group is shown, it is not given here.
Tests used:
Assay type in all cases: in vivo
normal conscious sheep [1] = assay: Plasma cGMP (RIA) and cAMP (ELISA) responses to stepped OSTN infusion; details: sheep n = 8, mean ± SD
Protocol: (§1) Sheep received I.V. infusions of increasing doses of ovine proOSTN (83–133), the putative 51 aa circulating peptide (at 2.5, 25 and 250 pmol/kg/min for 1 h each; Mimotopes, Melbourne, Victoria, Australia) and a vehicle control (0.9% saline) administered on separate days, ≥1 day apart, in a balanced random order.
(§2) Venous blood samples were obtained at 30 min and immediately preceding commencement of the first infusion (baseline) and at 30 min intervals for the duration of the study day. Samples were taken into tubes on ice, centrifuged at 4°C and stored at −20°C before assaying. Following extraction over C18 SepPac cartridges (Waters Corp., Milford, MA, USA), plasma concentrations of cGMP (Charles et al., [1990]), ANP (Charles et al., [1990]), BNP (Pemberton et al., [1997]), CNP (Charles et al., [1995]) and N‐terminal proCNP (NTproCNP) (Wilson et al., [2015]), were measured by radioimmunoassay (RIA) as previously described. Non‐extracted plasma renin activity (PRA) (Dunn & Espiner, [1976]) and aldosterone (Lun et al., [1983]) were measured as previously described. Cyclic AMP was measured by enzyme‐linked immunosorbent assay (catalogue no. ADI‐900‐163; Enzo Life Sciences, Farmingdale, NY, USA). For each analyte, all samples from individual animals were measured in the same assay to avoid interassay variability. Haematocrit concentrations were measured with every blood sample taken.

normal conscious sheep [2] = assay: Haemodynamic and haematocrit responses to stepped OSTN infusion; details: for Fall in mean arterial pressure (MAP) compared with time-matched vehicle control: sheep n = 8
Protocol: Eight Coopworth ewes (4–6 years; 42–60 kg; Lincoln University Farm, New Zealand) were instrumented under general anaesthesia (induced by 0.5 mg/kg diazepam I.V. and 4 mg/kg ketamine I.V. and maintained with a mixture of isoflurane and oxygen) and using approved peri‐ and postoperative antibiotics (20 mg/kg cephazolin I.V.; 6.6–20 mg/kg oxytetracycline I.V.) and analgesia (4 mg/kg carprofen I.V.). Sheep were instrumented via a 50‐mm‐long neck incision, allowing cannulation of the left carotid artery (16 gauge Angiocath; Becton Dickinson, Sandy, UT, USA) for direct measurement of mean arterial pressure (MAP) and heart rate (HR). A polyethylene catheter was placed in the left jugular vein for blood sampling and recording of central venous pressure (CVP). A Swan–Ganz thermodilution catheter (Edwards Life Sciences, Irvine, CA, USA) was placed in the pulmonary artery via the jugular vein for the measurement of cardiac output (CO). The urinary bladder was catheterized per urethra for timed urine collections (Charles, Espiner, Nicholls et al., [1996]). Animals recovered for ≥5 days before commencing the study protocol.
as §1
Haemodynamic measurements [HR, MAP, CVP and CO, and calculated total peripheral resistance (CTPR = MAP/CO)] were recorded at 30 min intervals in the hour preceding the first dose (baseline) and at 15, 30, 45 and 60 min during each infusion. […] Measurements were determined by online computer‐assisted analysis (PowerLab Systems; ADInstruments, Dunedin, New Zealand) and made with the animals standing quietly in their metabolic crates (Charles, Espiner, Nicholls et al., [1996]).
as §2

normal conscious sheep [3] = assay: Plasma ANP, BNP, CNP and NTproCNP responses to stepped OSTN infusion (RIA); details: for Plasma ANP / Plasma BNP / Plasma CNP: sheep n = 8, mean ± SD
Protocol: as §1, §2

normal conscious sheep [4] = assay: Plasma renin activity and aldosterone responses to stepped OSTN infusion; details: sheep n = 8, mean ± SD
Protocol: as §1, §2

[5] = 1 h, end of OSTN 2.5 pmol/kg/min I.V.
[6] = 2 h, end of OSTN 25 pmol/kg/min I.V.
[7] = 3 h, end of OSTN 250 pmol/kg/min I.V.
[8] = 4 h, 1 h after end of infusions
[9] = 5 h, 2 h after end of infusions
[10] = end of 60 min OSTN infusion 2.5 pmol/kg/min
[11] = end of 60 min OSTN infusion 25 pmol/kg/min
[12] = end of 60 min OSTN infusion 250 pmol/kg/min

SFSGFGSPLDRLSAGSVSHKGKQRKVVDHPKRRFGIPMDRIGRNRLSNSRG [OSTN]
Plasma cAMP (normal conscious sheep [1]; [5]): 11.5 ± 4.8 pmol/L
Plasma cAMP (normal conscious sheep [1]; [6]): 11.6 ± 3.0 pmol/L
Plasma cAMP (normal conscious sheep [1]; [7]): 12.9 ± 6.5 pmol/L
Plasma cAMP (normal conscious sheep [1]; [8]): 10.4 ± 7.1 pmol/L
Plasma cAMP (normal conscious sheep [1]; [9]): 10.7 ± 6.1 pmol/L
Plasma cGMP (normal conscious sheep [1]; [10]): 11.2 ± 5.1 nmol/L
Plasma cGMP (normal conscious sheep [1]; [11]): 19.0 ± 11.0 nmol/L
Plasma cGMP (normal conscious sheep [1]; [12]): 23.1 ± 9.7 nmol/L
Fall in mean arterial pressure (MAP) compared with time-matched vehicle control (normal conscious sheep [2]; end of 2.5 pmol/kg/min infusion period): ~2 mmHg
Fall in mean arterial pressure (MAP) compared with time-matched vehicle control (normal conscious sheep [2]; end of 25 pmol/kg/min infusion period): ~7 mmHg
Fall in mean arterial pressure (MAP) compared with time-matched vehicle control (normal conscious sheep [2]; end of 250 pmol/kg/min infusion period): ~12 mmHg
Heart rate (HR) (normal conscious sheep [2]; stepped OSTN infusions vs vehicle, P = 0.140): did not significantly alter
Calculated total peripheral resistance (CTPR) (normal conscious sheep [2]; stepped OSTN infusions vs vehicle, P = 0.356): did not significantly alter
Haematocrit (normal conscious sheep [2]; stepped OSTN infusions vs vehicle, P = 0.360): did not significantly alter
Cardiac output (CO) (normal conscious sheep [2]; stepped OSTN infusions vs vehicle, P = 0.546): did not significantly alter
Central venous pressure (CVP) (normal conscious sheep [2]; vs vehicle, P = 0.003, significant reductions at 25 and 250 pmol/kg/min): reduced
Plasma ANP (normal conscious sheep [3]; [10]): 24.3 ± 10.1 pmol/L and 24 pmol/L
Plasma BNP (normal conscious sheep [3]; [10]): 2.0 ± 0.5 pmol/L
Plasma CNP (normal conscious sheep [3]; [10]): 1.21 ± 0.30 pmol/L and 1.2 pmol/L
Plasma ANP (normal conscious sheep [3]; [11]): 27.6 ± 10.2 pmol/L
Plasma BNP (normal conscious sheep [3]; [11]): 3.1 ± 0.9 pmol/L
Plasma CNP (normal conscious sheep [3]; [11]): 2.13 ± 0.50 pmol/L
Plasma ANP (normal conscious sheep [3]; [12]): 33.0 ± 14.2 pmol/L
Plasma BNP (normal conscious sheep [3]; [12]): 3.9 ± 2.3 pmol/L
Plasma CNP (normal conscious sheep [3]; [12]): 3.81 ± 1.30 pmol/L
Plasma NTproCNP (normal conscious sheep [3]; stepped OSTN infusions 2.5, 25, 250 pmol/kg/min vs vehicle, P = 0.064): no significant effect
Plasma aldosterone (normal conscious sheep [4]; [5]): 199 ± 156 pmol/L
Plasma renin activity (normal conscious sheep [4]; [5]): 0.153 ± 0.070 nmol/L/h
Plasma aldosterone (normal conscious sheep [4]; [6]): 176 ± 137 pmol/L
Plasma renin activity (normal conscious sheep [4]; [6]): 0.153 ± 0.065 nmol/L/h
Plasma aldosterone (normal conscious sheep [4]; [7]): 167 ± 157 pmol/L
Plasma renin activity (normal conscious sheep [4]; [7]): 0.155 ± 0.075 nmol/L/h
Plasma aldosterone (normal conscious sheep [4]; [8]): 153 ± 142 pmol/L
Plasma renin activity (normal conscious sheep [4]; [8]): 0.186 ± 0.109 nmol/L/h
Plasma aldosterone (normal conscious sheep [4]; [9]): 192 ± 130 pmol/L
Plasma renin activity (normal conscious sheep [4]; [9]): 0.241 ± 0.181 nmol/L/h

From paper PMC11291853, “Haemodynamic, hormonal and renal actions of osteocrin in normal sheep” (Experimental Physiology, 2024)
